Earlier results in PubChem BioAssay AID1259409 (Chemical Carcinogenesis Research Information System (CCRIS), 2018).

Test system: rodent chemically induced tumor inhibition, incidence and multiplicity
Experiment: CCRIS tumor inhibitor studies

Cc1c(C)c2c(c(C)c1O)CC[C@@](C)(CCC[C@H](C)CCC[C@H](C)CCCC(C)C)O2
tumour outcome (control, treated, inhibition, significance) (Carcinogen: 7,12-DIMETHYLBENZ[A]ANTHRACENE, 57-97-6, Dose [Inhibitor]: 0.2% IN HIGH SATURATED FAT DIET DAILY STARTING 29 D BEFORE CARCINOGEN TREATMENT AND CONTINUING FOR DURATION OF STUDY (ST, Route [Inhibitor]: ORAL, Species: RAT, Strain/Sex: SPRAGUE-DAWLEY/FEMALE, Target Tissue: Type of Lesion: MAMMARY GLAND: ADENOCARCINOMA, Dose [Carcinogen]: 10 MG IN 1 ML STRIPPED CORN OIL ONCE AT 50 D OF AGE, Promoter: NONE USED): 65%, 65%, 0%, not calculated | tumour outcome (control, treated, inhibition, significance) (Carcinogen: 7,12-DIMETHYLBENZ[A]ANTHRACENE, 57-97-6, Dose [Inhibitor]: 0.2% IN LOW FAT DIET DAILY STARTING 29 D BEFORE CARCINOGEN TREATMENT AND CONTINUING FOR DURATION OF STUDY (STUDY DURATIO, Route [Inhibitor]: ORAL, Species: RAT, Strain/Sex: SPRAGUE-DAWLEY/FEMALE, Target Tissue: Type of Lesion: MAMMARY GLAND: ADENOCARCINOMA, Dose [Carcinogen]: 10 MG IN 1 ML STRIPPED CORN OIL ONCE AT 50 D OF AGE, Promoter: NONE USED): 35%, 35%, 0%, not calculated | tumour outcome (control, treated, inhibition, significance) (Carcinogen: 7,12-DIMETHYLBENZ[A]ANTHRACENE, 57-97-6, Dose [Inhibitor]: 0.2% IN LOW FAT DIET THROUGHOUT THE EXPERIMENT, (STUDY DURATION: 32 WK), Route [Inhibitor]: ORAL, Species: RAT, Strain/Sex: SPRAGUE-DAWLEY/FEMALE, Target Tissue: Type of Lesion: MAMMARY GLAND: PARENCHYMAL CELL CARCINOMA, Dose [Carcinogen]: 10 MG IN 1 ML CORN OIL AT 50 D OF AGE ONCE, Promoter: NONE USED): 37%, 32%, 14%, not calculated | tumour outcome (control, treated, inhibition, significance) (Carcinogen: 7,12-DIMETHYLBENZ[A]ANTHRACENE, 57-97-6, Dose [Inhibitor]: 0.2% IN SATURATED FAT DIET THROUGHOUT THE EXPERIMENT, (STUDY DURATION: 32 WK), Route [Inhibitor]: ORAL, Species: RAT, Strain/Sex: SPRAGUE-DAWLEY/FEMALE, Target Tissue: Type of Lesion: MAMMARY GLAND: PARENCHYMAL CELL CARCINOMA, Dose [Carcinogen]: 10 MG IN 1 ML CORN OIL AT 50 D OF AGE ONCE, Promoter: NONE USED): 67%, 65%, 3%, not calculated | tumour outcome (control, treated, inhibition, significance) (Carcinogen: 7,12-DIMETHYLBENZ[A]ANTHRACENE, 57-97-6, Dose [Inhibitor]: 43 UG IN 80 µL ACETONE ONCE APPLIED ON BACK 5 MIN PRIOR TO CARCINOGEN DOSE (STUDY DURATION: 4 MO), Route [Inhibitor]: DERMAL, Species: MOUSE, Strain/Sex: ICR/FEMALE, Target Tissue: Type of Lesion: SKIN: TUMOR, Dose [Carcinogen]: 25 UG IN 80 µL ACETONE APPLIED ON BACK, Promoter: CROTON OIL, 8001-28-3): 29/30 (97%), 27/30 (90%), 7%, not significant | tumour outcome (control, treated, inhibition, significance) (Carcinogen: 7,12-DIMETHYLBENZ[A]ANTHRACENE;57-97-6, Dose [Inhibitor]: 200 MG IN 1 ML OLIVE OIL ONCE 1 HR PRIOR TO CARCINOGEN DOSE(STUDY DURATION: 18 WK), Route [Inhibitor]: GAVAGE, Species: RAT, Strain/Sex: SPRAGUE-DAWLEY/FEMALE, Target Tissue: Type of Lesion: MAMMARY GLAND: TUMOR, Dose [Carcinogen]: 12 MG IN 1 ML OLIVE OIL ADMINISTERED 1 HR AFTER INHIBITOR, Promoter: NONE USED): 27/34 (80%), 10/18 (56%), 30%, not significant | tumour outcome (control, treated, inhibition, significance) (Carcinogen: 7,12-DIMETHYLBENZ[A]ANTHRACENE, 57-97-6, Dose [Inhibitor]: 1000 UG APPLIED ONCE 5 MIN PRIOR TO CARCINOGEN DOSE (STUDY DURATION: 28 WK), Route [Inhibitor]: DERMAL, Species: MOUSE, Strain/Sex: CD-1/FEMALE, Target Tissue: Type of Lesion: SKIN: PAPILLOMA, Dose [Carcinogen]: 2.56 UG APPLIED ONCE 5 MIN AFTER INHIBITOR, Promoter: 12-O-TETRADECANOYLPHORBOL-13-ACETATE, 16561-29-8): 82%, 68%, 17%, not calculated | tumour outcome (control, treated, inhibition, significance) (Carcinogen: METHYL(ACETOXYMETHYL)NITROSAMINE, 56856-83-8, Dose [Inhibitor]: 0, 5.8 NMOL IN DRINKING WATER BEGINNING 2 WK PRIOR TO CARCINOGEN AND CONTINUED FOR STUDY DURATION, (STUDY DURATION: 13 M, Dose [Inhibitor]: 0, 5.8 NMOL IN DRINKING WATER BEGINNING 2 WK PRIOR TO CARCINOGEN AND CONTINUED FOR STUDY DURATION, (STUDY DURATION: 13 M, Route [Inhibitor]: ORAL, Species: HAMSTER, Strain/Sex: SYRIAN/FEMALE, Target Tissue: Type of Lesion: ORAL CAVITY: TUMOR, Dose [Carcinogen]: 2 MG/KG BW IN DISTILLED WATER TO RIGHT CHEEK POUCH 2/MO FOR 6 MO (TOTAL DOSE 24 MG/KG), Promoter: NONE USED): 14/15 (93%), 1/15 (7%), 92%, p<0.001 | tumour outcome (control, treated, inhibition, significance) (Carcinogen: N-BIS(2-HYDROXYPROPYL)NITROSAMINE, 53609-64-6, Dose [Inhibitor]: 0, 1% IN DIET FOR 30 WK BEGINNING POST CARCINOGEN TREATMENT (STUDY DURATION: 32 WK), Route [Inhibitor]: ORAL, Species: RAT, Strain/Sex: F344/MALE, Target Tissue: Type of Lesion: BLADDER: ADENOMA, Dose [Carcinogen]: 0.1% IN DRINKING WATER FOR 2 WK, Promoter: NONE USED): 5%, 15%, -200%, not calculated | tumour outcome (control, treated, inhibition, significance) (Carcinogen: N-BIS(2-HYDROXYPROPYL)NITROSAMINE, 53609-64-6, Dose [Inhibitor]: 0, 1% IN DIET FOR 30 WK BEGINNING POST CARCINOGEN TREATMENT (STUDY DURATION: 32 WK), Route [Inhibitor]: ORAL, Species: RAT, Strain/Sex: F344/MALE, Target Tissue: Type of Lesion: KIDNEY: TUMOR, Dose [Carcinogen]: 0.1% IN DRINKING WATER FOR 2 WK, Promoter: NONE USED): 10%, 20%, -100%, not calculated
